Data on 5 molecules can be found in patent US8691875B2, “Solid forms of tacedinaline” (Broad Institute, Inc., priority 2011, dated 2014).

Data set [1] in a line: Solubility study of crystalline forms in water (slurry, UV). Format: physicochemical. The conditions noted are these: for Solubility: slurry stirred 24 hours at ambient temperature (23° C.), UV. The protocol: Analysis of the relative solubilities of crystalline tacedinaline Forms A, B, and D was performed as follows.
The starting material was Form B. The only peak in the spectrum, at approximately 267 nm, was used. The UV parameters were: scan range: 190-800 nm; 480 nm/min; 1 cm cuvette.
Each sample was placed in water to give a slurry. The slurries were stirred at ambient temperature for 24 hours. The temperature in the laboratory was monitored and found to be steady at 23° C. After 24 hours, the vials containing the slurries were centrifuged for about 5 minutes. The mother liquors were decanted and filtered through 0.2 micron filters, then diluted appropriately and analyzed by UV. Solids were dried under dry air purges and analyzed by XRPD.

Data set [2] is described as follows: Accelerated stability studies, 40° C. and 75% relative humidity, XRPD. Format: physicochemical. On the procedure: Accelerated stability studies were performed on samples of crystalline tacedinaline Forms A, B, C, and a mixture of Forms B and D, under conditions of 40° C. and 75% relative humidity. For the studies on Form A, samples were taken at 8 days, 15 days, one month, 10 weeks, and 8 months. For the studies on Forms B, C, and a mixture of Forms B and D, samples were taken at 2, 4, 6, 8, and 10 weeks.

A short description of data set [3]: Bioavailability / pharmacokinetics study, single IV and PO administration. Particulars: for AUC(0-inf) / AUC(0-t) / Cmax / clearance / half-life / MRT inf / Vd / bioavailability / Tmax: Sprague-Dawley, rat, plasma; for AUC(0-inf) / AUC(0-t) / Cmax / clearance / half-life / MRT inf / Vd / bioavailability: 1 mg/kg; for MRT inf: read-out: MRT(0-∞); for Vd: read-out: Vz. Format: in vivo, Sprague-Dawley rats. On the procedure: A study was performed to determine the pharmacokinetics parameters and bioavailability of Tacedinaline Form A in Sprague-Dawley Rats, following a single intravenous injection (IV) and oral administration (PO). Formulation: IV formulation: The test article was dissolved in 10% DMSO/45% PEG400/45% Saline to yield a final concentration of 0.5 mg/ml for intravenous injection. PO formulation: The test article was suspended in 0.5% methylcellulose in water to yield a final concentration of 0.2 mg/ml for oral administration. Collection Intervals: Three rats in each group were used for blood collection at each time point: Groups 1 and 2: Pre-dose and post-dose (5 min, 15 min, 30 min, 1 hour, 2 hours, 4 hours, 6 hours, 8 hours, and 24 hours). Analysis Procedure: The PK blood samples were centrifuged at approximately 8000 rpm for 6 minutes at 2-8° C. and the resulting plasma separated and stored frozen at approximately −80° C. (following separation, the plasma may be initially placed on ice prior to being stored in the −80° C. freezer). All the plasma samples were labeled with detailed information such as study number, animal number, matrix, time points of collection and date of collection. Pharmacokinetics Analysis: A standard set of parameters including Area Under the Curve (AUC(0-t) and AUC(0-∞)), elimination half-life (T1/2), maximum plasma concentration (Cmax), time to reach maximum plasma concentration (Tmax), clearance (CL), and volume of distribution (VZ) was calculated using noncompartmental analysis modules in FDA certified pharmacokinetic program WinNonlin Professional v6.1 (Pharsight, USA). Further, the bioavailability was estimated using the following formula: […]

The nature of data set [4]: Thermal stability relative to Form C. Format: physicochemical. On the procedure:
As used herein, the term “DSC” refers to differential scanning calorimetry. Unless otherwise noted, DSC data disclosed herein were obtained using a TA Instruments 2920 instrument. Samples were prepared in crimped aluminum pans and kept under a flow of nitrogen during analysis. The heating rate was 10° C./minute.
As used herein, the term “TGA” refers to thermogravimetric analysis. Unless otherwise noted, TGA data disclosed herein were obtained using TA Instruments 2050 instrument. Samples were kept under a flow of nitrogen during analysis. The heating rate was 10° C./minute.

A short description of data set [5]: Competitive slurry experiment / relative thermodynamic stability. Format: physicochemical. The conditions noted are these: for relative thermodynamic stability, rank order: from Examples 10A, 11 and 12; for thermodynamic stability relative to other forms (in words): slurry experiments (THF overnight; acetone 7 days), Examples 10A, 11, 12. On the procedure: To a mixture of 161.3 mg of crystalline tacedinaline Forms B and D, was added 2 mL of acetone. The resulting slurry was stirred at ambient temperature for 7 days and filtered to give white solid.
A slurry containing 25.8 mg tacedinaline Form A, 25.8 mg of a mixture of tacedinaline Forms B and D, a few milligrams of tacedinaline Form B, and 0.5 mL of tetrahydrofuran (THF) was stirred overnight and filtered to give 38.6 mg of a white solid. The white solid was analyzed by XRPD and determined to be tacedinaline Form A.

Values after ≈ are worked out from the molar mass of the structure shown. “Also recorded” adds a separate entry of the source. Read-outs that look alike come from different tables or passages of the source.

For orientation: Solubility means the dissolved amount per volume that the medium holds. A higher Solubility goes with a readily soluble substance. In turn, `CC(=O)Nc1ccc(C(=O)Nc2ccccc2N)cc1` [B + D, 4-acetamido-N-(2-aminophenyl)benzamide] showed a Solubility in data set [1] of 20.8 µg/mL. Also, the “stability of the solid form (in words)” value in data set [2] (listed as mixture of Form B and Form D) is “more stable than Form C”. Besides, the “XRPD Result” value in data set [2] (pull time 2 weeks), in data set [2] (pull time 4 weeks), in data set [2] (pull time 6 weeks) and in data set [2] (pull time 8 weeks) was “B + D” in each case.
The term AUC(0-inf) denotes the area under the concentration-time curve extrapolated to infinity. What is called AUC(0-t) is the area under the concentration-time curve up to a stated or last time point. Broadly, the Cmax is the highest concentration seen after dosing. In general, half-life refers to how long it takes for the measured level to halve. Read a low half-life as fast loss. Broadly, the Tmax is the time from dosing to the highest level. For `CC(=O)Nc1ccc(C(=O)Nc2ccccc2N)cc1` [Form A, 4-(acetylamino)-N-(2-aminophenyl)benzamide], in data set [1], the Solubility stood at 17.6 µg/mL (≈ 65.4 µM). Further, the CL_F in data set [3] (PO 1 mg/kg, Animal No. 1) was found to be 4.5 mL/min/kg; in data set [3] (PO 1 mg/kg, Animal No. 2) it was 4.17 mL/min/kg; in data set [3] (PO 1 mg/kg, Mean) it was 4.33 mL/min/kg. For the same molecule, the Vz_F in data set [3] (PO 1 mg/kg, Animal No. 1) amounted to 1.47 L/kg; in data set [3] (PO 1 mg/kg, Animal No. 2), 1.04 L/kg; in data set [3] (PO 1 mg/kg, Mean), 1.25 L/kg. For the same molecule, the AUC(0-inf) worked out at 3100 ng·h/mL in data set [3] (iv, IV 1 mg/kg, Animal No. 1); 3010 ng·h/mL in data set [3] (iv, IV 1 mg/kg, Animal No. 2); 3060 ng·h/mL in data set [3] (iv, IV 1 mg/kg, Mean); 3730 ng·h/mL in data set [3] (po, PO 1 mg/kg, Animal No. 1); 4030 ng·h/mL in data set [3] (po, PO 1 mg/kg, Animal No. 2); 3880 ng·h/mL in data set [3] (po, PO 1 mg/kg, Mean). In addition, the exposure AUC(0-t) in data set [3] (iv, IV 1 mg/kg, Animal No. 1) stood at 3090 ng·h/mL; in data set [3] (iv, IV 1 mg/kg, Animal No. 2), 3010 ng·h/mL; in data set [3] (iv, IV 1 mg/kg, Mean), 3050 ng·h/mL; in data set [3] (po, PO 1 mg/kg, Animal No. 1), 3700 ng·h/mL; in data set [3] (po, PO 1 mg/kg, Animal No. 2) it was 4020 ng·h/mL; in data set [3] (po, PO 1 mg/kg, Mean), 3860 ng·h/mL. Moreover, the Cmax in data set [3] (iv, IV 1 mg/kg, Animal No. 1) amounted to 799 ng/mL; in data set [3] (iv, IV 1 mg/kg, Animal No. 2), 715 ng/mL; in data set [3] (iv, IV 1 mg/kg, Mean) it was 757 ng/mL; in data set [3] (po, PO 1 mg/kg, Animal No. 1) it was 687 ng/mL; in data set [3] (po, PO 1 mg/kg, Animal No. 2), 781 ng/mL; in data set [3] (po, PO 1 mg/kg, Mean), 734 ng/mL. The clearance is 5.33 mL/min/kg in data set [3] (iv, IV 1 mg/kg, Animal No. 1); 5.5 mL/min/kg in data set [3] (iv, IV 1 mg/kg, Animal No. 2); 5.5 mL/min/kg in data set [3] (iv, IV 1 mg/kg, Mean). The half-life in data set [3] (iv, IV 1 mg/kg, Animal No. 1) is 2.81 h; in data set [3] (iv, IV 1 mg/kg, Animal No. 2), 2.82 h; in data set [3] (iv, IV 1 mg/kg, Mean), 2.81 h; in data set [3] (po, PO 1 mg/kg, Animal No. 1), 3.81 h; in data set [3] (po, PO 1 mg/kg, Animal No. 2), 2.9 h; in data set [3] (po, PO 1 mg/kg, Mean), 3.35 h. Also, the MRT inf in data set [3] (iv, IV 1 mg/kg, Animal No. 1) was found to be 3.46 h; in data set [3] (iv, IV 1 mg/kg, Animal No. 2) it was 3.57 h; in data set [3] (iv, IV 1 mg/kg, Mean), 3.52 h; in data set [3] (po, PO 1 mg/kg, Animal No. 1) it was 4.6 h; in data set [3] (po, PO 1 mg/kg, Animal No. 2), 4.06 h; in data set [3] (po, PO 1 mg/kg, Mean), 4.33 h. Also, the Vd in data set [3] (iv, IV 1 mg/kg, Animal No. 1) was found to be 1.31 L/kg; in data set [3] (iv, IV 1 mg/kg, Animal No. 2) it was 1.35 L/kg; in data set [3] (iv, IV 1 mg/kg, Mean) it was 1.33 L/kg. Also, the bioavailability in data set [3] (oral, rats, read-out: bioavailability) amounted to 100%; in data set [3] (po, PO 1 mg/kg, Animal No. 1, read-out: F (Bioavailability)), 122%; in data set [3] (po, PO 1 mg/kg, Animal No. 2, read-out: F (Bioavailability)) it was 132%; in data set [3] (po, PO 1 mg/kg, Mean, read-out: F (Bioavailability)), 127%. The Tmax worked out at 0.5 h in data set [3] (IV 1 mg/kg, Animal No. 1) and 2 h in data set [3] (PO 1 mg/kg, Animal No. 1). Moreover, in data set [4], the “thermal stability relative to Form C (in words)” value is given as “improved thermal stability relative to tacedinaline Form C”. Moreover, in data set [5], the “relative thermodynamic stability, rank order” value was “A>D>B”. Besides, the “thermodynamic stability relative to other forms (in words)” value in data set [5] was “more thermodynamically stable, relative to tacedinaline Forms B, and D; also recorded: more thermodynamically stable under certain conditions relative to Forms B and D”. The “stability of the solid form (in words)” value in data set [2] is reported as “stable, as no conversion was seen”.
Consider `CC(=O)Nc1ccc(C(=O)Nc2ccccc2N)cc1` [Form B, 4-(acetylamino)-N-(2-aminophenyl)benzamide], for which, in data set [1], the “solubility in water compared with other forms (in words)” value was “superior to that of Forms A and D”; the Solubility came out at 42.6 µg/mL (≈ 158 µM). Moreover, the “thermal stability relative to Form C (in words)” value in data set [4] is “improved thermal stability relative to tacedinaline Form C”. Besides, the “relative thermodynamic stability, rank order” value in data set [5] is “A>D>B”. Also, the “stability of the solid form (in words)” value in data set [2] is on record as “more stable than Form C”.
For the molecule `CC(=O)Nc1ccc(C(=O)Nc2ccccc2N)cc1` [Form D, 4-(acetylamino)-N-(2-aminophenyl)benzamide], in data set [4], the “thermal stability relative to Form C (in words)” value is listed as “improved thermal stability relative to tacedinaline Form C”. Also, in data set [5], the “relative thermodynamic stability, rank order” value was “A>D>B” and the “thermodynamic stability relative to other forms (in words)” value was “more thermodynamically stable under certain conditions relative to Form B”.
As for `CC(=O)Nc1ccc(C(=O)Nc2ccccc2N)cc1` [Form C, 4-(acetylamino)-N-(2-aminophenyl)benzamide, reference compound], in data set [2], the “stability of the solid form (in words)” value is given as “converted to either Form D, or a mixture of Form D with some amount of Form A present”. Further, the “XRPD Result” value in data set [2] (pull time 2 weeks), in data set [2] (pull time 6 weeks) and in data set [2] (pull time 8 weeks) was “D + A” in each case.
